# Results as given in patent US20230098403A1, “MAGNETIC RESONANCE IMAGING CONTRAST AGENT, PREPARATION METHOD AND USE THEREOF” (GUANGZHOU PINGLAN MEDICAL TECHNOLOGY CO., LTD., priority 2020, published 2023).
# How the values were obtained:
# [1] = Excretion kinetics test, Mn^2+ in urine and bile by ICP-MS; format: in vivo, SD rats; conditions: tail vein 0.1 mmol/kg; for Bile: Mn^2+ excretion amount / Bile: cumulative Mn^2+ excretion amount / Bile: cumulative Mn^2+ excretion rate / Urine: Mn^2+ excretion amount / Urine: cumulative Mn^2+ excretion amount / Urine: cumulative Mn^2+ excretion rate: SD rats, n = 7
# Method: Clean grade Sprague Dawley (SD) rats, 5 males and 3 females, weighing 250±50 g, were purchased from the Animal Experimental Center of North Sichuan Medical College, fasted for 12-16 h before the experiment and anesthetized by intraperitoneal injection of 3% sodium pentobarbital (40 mg/kg).
# The rat tail was soaked in hot water at about 40° C. for about 1 minute, and it was wiped and sterilized by a cotton ball dipped in alcohol followed by fixing and stretching the tip of the tail with left thumb and middle finger, and flatting with the index finger. The tail vein was located at both sides of the tail and was light cyan in color. Air in an indwelling needle was removed with normal saline, and the indwelling needle was inserted into the vein at an angle of 15° to the vein. When blood was returned, the indwelling needle was pushed forward after insertion. Then the indwelling needle was fixed on the tail of the rat, and normal saline was injected at a rate of about 2 mL/h.
# After sterilization, a longitudinal incision was made in the middle of the abdomen of rats below the xiphoid, by incising the skin, subcutaneous tissue, linea alba, and peritoneum layer by layer into the abdomen. A forcep was used for opening the left and right lobes of the liver, below which the duodenum and omentum were exposed. The transverse part of the duodenum was stretched with the forcep in the middle, and the pale yellow biliary tract was covered by the omentum and extended from the subhepatic portion to the duodenum. The biliary tract was bluntly dissected out, picked out with a glass pick, and a venous indwelling needle was inserted near the duodenum, fixed with a hemostatic clip, and bile was collected as a pre-dose sample.
# A longitudinal incision was made at 0.5 cm above the urethral orifice of rats, and the skin was incised and the muscles were bluntly separated. After the bladder was filled to a certain extent, the bladder was lifted by the left hand with a tweezer, and the venous indwelling needle was held by the right hand and was obliquely inserted into the bladder toward the top, along the opening of ureter on the dorsal lateral side of the bladder, and the needle was removed to collect urine as a pre-dose sample.
# After collecting pre-dose bile and urine samples, the drug was rapidly administered in the tail vein at a dose of 0.1 mmol/kg.
# The hourly biliary excretion amount and hourly urinary excretion amount were collected after drug administration; the samples were weighed and frozen at −20° C.
# […] of the sample (bile and urine) was diluted to 6 to 10 ml with 1% HNO3 to make the concentrations of Mn^2+ in the range of 1 to 1000 ppb. The concentrations of Mn^2+ in the samples solution were numbered and detected. The Mn^2+ concentrations in the sample solutions were calculated according to the response intensity and standard curve.
# Origin 9.0 was used for calculating data and drawing. The excretion amount during the period was obtained by multiplying the dilution ratio, measurement concentration and urine (bile) volume. The excretion amount during each period was compared with the dosage of administration to obtain the percentage of cumulative drug excretion amount during the corresponding time period.
# [2] = In vivo imaging in rats (3.0 T MRI); conditions: SD rats, 0.2 mmol/kg tail vein
# Method: 1. Sixteen SD rats were divided into a KBR0826 contrast agent group (experimental group) and a gadoteric acid meglumine (Gd-DOTA) contrast agent group (control group), with 8 rats in each group, fasted for 12 hours (drank water freely).
# 2. 3% sodium pentobarbital (60 to 70 mg/kg) was weighed for intraperitoneal anesthesia.
# 3. The dosage of KBR0826 was 0.2 mmol/kg. SD rats were imaged in vivo with a 3.0 T MRI imager. Contrast agents were injected into the tail vein. The signal intensities (SI) of the heart, liver, brain parenchyma, muscle, and abdominal aorta in rats were measured before and after injection, and signal to noise ratio (SNR) was calculated and time-signal intensity curve was drawn to evaluate the imaging effect of the contrast agents.
smiles,measurement,setting,value
O=C([O-])CN(CP(=O)([O-])O)C1CCCCC1N(CC(=O)[O-])CP(=O)([O-])O.[Mn+2].[Na+].[Na+] (stereo not shown) [KBR0826],Bile: Mn^2+ excretion amount,[1]; sampling period 0-1 h,0.0386 mg
same,Bile: cumulative Mn^2+ excretion amount,[1]; sampling period 0-1 h,0.0385 mg
same,Bile: cumulative Mn^2+ excretion rate,[1]; sampling period 0-1 h,2.81%
same,Urine: Mn^2+ excretion amount,[1]; sampling period 0-1 h,0.06995 mg
same,Urine: cumulative Mn^2+ excretion amount,[1]; sampling period 0-1 h,0.06995 mg
same,Urine: cumulative Mn^2+ excretion rate,[1]; sampling period 0-1 h,5.28%
same,Bile: Mn^2+ excretion amount,[1]; sampling period 1-2 h,0.0865 mg
same,Bile: cumulative Mn^2+ excretion amount,[1]; sampling period 1-2 h,0.1251 mg
same,Bile: cumulative Mn^2+ excretion rate,[1]; sampling period 1-2 h,9.31%
same,Urine: Mn^2+ excretion amount,[1]; sampling period 1-2 h,0.1582 mg
same,Urine: cumulative Mn^2+ excretion amount,[1]; sampling period 1-2 h,0.2281 mg
same,Urine: cumulative Mn^2+ excretion rate,[1]; sampling period 1-2 h,18.27%
same,Bile: Mn^2+ excretion amount,[1]; sampling period 2-3 h,0.0518 mg
same,Bile: cumulative Mn^2+ excretion amount,[1]; sampling period 2-3 h,0.1768 mg
same,Bile: cumulative Mn^2+ excretion rate,[1]; sampling period 2-3 h,13.17%
same,Urine: Mn^2+ excretion amount,[1]; sampling period 2-3 h,0.1094 mg
same,Urine: cumulative Mn^2+ excretion amount,[1]; sampling period 2-3 h,0.3375 mg
same,Urine: cumulative Mn^2+ excretion rate,[1]; sampling period 2-3 h,26.67%
same,Bile: Mn^2+ excretion amount,[1]; sampling period 3-4 h,0.0333 mg
same,Bile: cumulative Mn^2+ excretion amount,[1]; sampling period 3-4 h,0.2101 mg
same,Bile: cumulative Mn^2+ excretion rate,[1]; sampling period 3-4 h,15.69%
same,Urine: Mn^2+ excretion amount,[1]; sampling period 3-4 h,0.02084 mg
same,Urine: cumulative Mn^2+ excretion amount,[1]; sampling period 3-4 h,0.3399 mg
same,Urine: cumulative Mn^2+ excretion rate,[1]; sampling period 3-4 h,26.71%
same,Bile: Mn^2+ excretion amount,[1]; sampling period 4-5 h,0.043 mg
same,Bile: cumulative Mn^2+ excretion amount,[1]; sampling period 4-5 h,0.2627 mg
same,Bile: cumulative Mn^2+ excretion rate,[1]; sampling period 4-5 h,19.66%
same,Urine: Mn^2+ excretion amount,[1]; sampling period 4-5 h,0.01213 mg
same,Urine: cumulative Mn^2+ excretion amount,[1]; sampling period 4-5 h,0.3521 mg
same,Urine: cumulative Mn^2+ excretion rate,[1]; sampling period 4-5 h,27.59%
same,Bile: Mn^2+ excretion amount,[1]; sampling period 5-6 h,0.0318 mg
same,Bile: cumulative Mn^2+ excretion amount,[1]; sampling period 5-6 h,0.2945 mg
same,Bile: cumulative Mn^2+ excretion rate,[1]; sampling period 5-6 h,22.07%
same,Urine: Mn^2+ excretion amount,[1]; sampling period 5-6 h,0.00387 mg
same,Urine: cumulative Mn^2+ excretion amount,[1]; sampling period 5-6 h,0.3559 mg
same,Urine: cumulative Mn^2+ excretion rate,[1]; sampling period 5-6 h,27.88%
same,Bile: Mn^2+ excretion amount,[1]; sampling period 6-7 h,0.0265 mg
same,Bile: cumulative Mn^2+ excretion amount,[1]; sampling period 6-7 h,0.3209 mg
same,Bile: cumulative Mn^2+ excretion rate,[1]; sampling period 6-7 h,24.05%
same,Urine: Mn^2+ excretion amount,[1]; sampling period 6-7 h,0.00284 mg
same,Urine: cumulative Mn^2+ excretion amount,[1]; sampling period 6-7 h,0.3588 mg
same,Urine: cumulative Mn^2+ excretion rate,[1]; sampling period 6-7 h,28.09%
same,Bile: Mn^2+ excretion amount,[1]; sampling period 7-8 h,0.0219 mg
same,Bile: cumulative Mn^2+ excretion amount,[1]; sampling period 7-8 h,0.3429 mg
same,Bile: cumulative Mn^2+ excretion rate,[1]; sampling period 7-8 h,25.67%
same,Urine: Mn^2+ excretion amount,[1]; sampling period 7-8 h,0.0018 mg
same,Urine: cumulative Mn^2+ excretion amount,[1]; sampling period 7-8 h,0.3606 mg
same,Urine: cumulative Mn^2+ excretion rate,[1]; sampling period 7-8 h,28.22%
same,Bile: Mn^2+ excretion amount,[1]; sampling period 8-9 h,0.02 mg
same,Bile: cumulative Mn^2+ excretion amount,[1]; sampling period 8-9 h,0.3684 mg
same,Bile: cumulative Mn^2+ excretion rate,[1]; sampling period 8-9 h,27.03%
same,Urine: Mn^2+ excretion amount,[1]; sampling period 8-9 h,0.00083 mg
same,Urine: cumulative Mn^2+ excretion amount,[1]; sampling period 8-9 h,0.3614 mg
same,Urine: cumulative Mn^2+ excretion rate,[1]; sampling period 8-9 h,28.28%
same,Bile: Mn^2+ excretion amount,[1]; sampling period 9-10 h,0.0179 mg
same,Bile: cumulative Mn^2+ excretion amount,[1]; sampling period 9-10 h,0.3859 mg
same,Bile: cumulative Mn^2+ excretion rate,[1]; sampling period 9-10 h,29.97%
same,Urine: Mn^2+ excretion amount,[1]; sampling period 9-10 h,0.00061 mg
same,Urine: cumulative Mn^2+ excretion amount,[1]; sampling period 9-10 h,0.362 mg
same,Urine: cumulative Mn^2+ excretion rate,[1]; sampling period 9-10 h,28.33%
same,excretion route,[1]; rats,mainly excreted through liver and kidney
same,time course of excretion in urine and bile,[1]; rats,mainly in urine at the early stage and then in bile
same,excreted in liver and kidney,"[1]; rats, within 600 min",about 60%
same,share of liver and kidney in excretion,"[1]; rats, within 600 min",half and half
same,excretion seen by imaging,[2],could be excreted through the kidneys and intestines
same,liver enhancement,[2],obvious and continuous
same,passage through the blood-brain barrier,[2],could not pass through the normal blood-brain barrier
